Experimental data taken from patent publication US20220372430A1, “PROTISTS ENRICHED WITH LIPIDS RICH IN POLYUNSATURATED FATTY ACIDS” (BIOREA, priority 2015, published 2022).

Key:
[1] = tested on: Crypthecodinium cohnii; details: n-dodecane (oxygen carrier) added to culture medium of Crypthecodinium cohnii; cited from earlier work
[2] = tested on: Crypthecodinium cohnii CCMP 316; assay: Culture of Crypthecodinium cohnii in medium containing selenomethionine; fatty acid profile and total lipids; assay type: cell-based
Protocol: The total concentration of biomass was monitored by measuring the dry mass (filtration on GFC filter, Whatman, then drying in an oven under vacuum, 70° C. and −0.8 bar (80 kPa), for 24 h minimum before weighing). 10^7 cells/mL were extracted in order to quantify the total lipids. The method for extracting lipids is known to a person skilled in the art and is as described by the publication “Bligh E. G. & Dyer W. J., A rapid method of total lipid extraction and purification, Can. J. Biochem. Physiol 37 1959 911-917”, this method having been slightly adapted for microalga cells. Thus, for each measurement, approximately 10 mL of culture (biomass and medium), freshly sampled, was washed with demineralized water so as to remove the extracellular salts before lyophilization, then placed in a glass tube and centrifuged for 10 mins at 3600 g and at 4° C. After centrifugation, the supernatant was removed and the pellet containing the cells was lyophilized. Extraction was carried out with 6 mL of a monophasic CHCl3/MeOH (chloroform/methanol) mixture in proportions of 2/1 (V/V). In order to ensure complete extraction of the lipids, the tube was kept under stirring on a rocker for 6 hours in darkness, then stored at −20° C. before being analyzed by GC-FID (gas chromatography with flame ionization detection) in order to determine the quantity and the profiles of the total fatty acids extracted.
It was produced in the same way as in Example 1, except that the protist is Crypthecodinium cohnii instead of Schizochytrium limacinum, and that a single source of selenium was used: selenomethionine (“SeMet”).
Crypthecodinium cohnii is a protist, and more precisely a heterotrophic microalga. The strain Crypthecodinium cohnii CCMP 316 was obtained from the NCMA bank (https://ncma.bigelow.org).
The results obtained are shown in FIG. 4 which gives respectively, for Crypthecodinium cohnii after incubation for 187 h, the percentage of compound in the total lipids on the y-axis, for each of the compounds (PUFA, DHA and SFA) shown on the x-axis, in the presence of selenomethionine (reference “With SeMet”), or in the absence of a selenium-containing compound (reference “Without Se”).

[3] = tested on: Schizochytrium limacinum; details: added exogenously to the culture medium of Schizochytrium, in particular Schizochytrium limacinum; cited from earlier work
[4] = tested on: Schizochytrium limacinum ATCC-MYA1381; assay: Culture of Schizochytrium limacinum in medium with a selenium-containing compound; fatty acid profile of total lipids by GC-FID; assay type: cell-based; details: 5 mg of selenium/L in culture medium, incubation 187 h
Protocol: A strain of Schizochytrium limacinum ATCC-MYA1381 was obtained from the ATCC bank (www.atcc.org).
The growth characteristics as well as the production of lipids by Schizochytrium limacinum were measured in the presence of different forms of selenium and compared in the absence of such additives (control referenced “Without Se” in the figures).
Pre-culture of the strain Schizochytrium limacinum ATCC-MYA1381 was carried out in standard liquid medium, the composition of which is given in Table 1. To this end, starter cultures of 50 mL were started in a 250 mL Erlen flask from a colony isolated on 633 M3 chytrid agar (www.atcc.org) and cultured at 25° C.±1° C. in heterotrophy for 48 h in this standard liquid medium. The 100 mL inoculum is then started in a 500 mL Erlen flask from these “starter” cultures at an initial concentration of 1.0×10^6 cells/m/L in the same culture conditions as the latter for 4 days. The cultures were continuously aerated by orbital stirring at 100 rpm (“revolutions per minute”).
The cultures for enrichment with selenium-containing compounds were started from the inoculum at an initial concentration of 1.0×10^6 cells/mL for a final volume of 400 mL in a 2.0 L Erlen flask at 25° C.±1° C. in heterotrophy for 187 h.
The cultures were continuously aerated by orbital stirring at 100 rpm. […]
The total concentration of biomass was monitored by measuring the dry mass (filtration on GFC filter, Whatman, then drying in an oven under vacuum, 70° C. and −0.8 bar (80 kPa), for 24 h minimum before weighing). 10^7 cells/mL were extracted in order to quantify the total lipids. […] In order to ensure complete extraction of the lipids, the tube was kept under stirring on a rocker for 6 hours in darkness, then stored at −20° C. before being analyzed by GC-FID (gas chromatography with flame ionization detection) in order to determine the quantity and the profiles of the total fatty acids extracted. […]

For `CCCCCCCCCCCC` [n-dodecane], the “production of DHA, of total lipids” value [1] is given as 51%.
For `C[Se]CC[C@H](N)C(=O)O` [selenomethionine], the “percentage of DHA in the total lipids” value ([2]; 5 mg/L of selenium in culture medium, incubation 187 h, control without Se 24%) was 34%, the “percentage of PUFA in the total lipids” value ([2]; 5 mg/L of selenium in culture medium, incubation 187 h, control without Se 25%) was 35% and the “percentage of SFA in the total lipids” value ([2]; 5 mg/L of selenium in culture medium, incubation 187 h, control without Se 64%) was 53.5%. The “increase in total lipid content in the dry biomass relative to the control medium” value ([2]; selenium-containing culture medium versus control medium) was 34%.
In the case of `OC[C@H]1O[C@H](O[C@H]2O[C@H](CO)[C@@H](O)[C@H](O)[C@H]2O)[C@H](O)[C@@H](O)[C@@H]1O` [trehalose], the “fermentation yield of polyunsaturated fatty acids” value [3] is given as “significantly increase”.
For `O=[Se](O)O` [selenite, sodium selenite], the “percentage of DHA in the total lipids” value ([4]; control without Se 41%) was 54%, the “percentage of SFA in the total lipids” value ([4]; control without Se 44%) was 26% and the “percentage of PUFA in the total lipids” value ([4]; control without Se 53%) was 73%.
For `C[N+](C)(C)CC(=O)[O-]` [glycine betaine], the “fermentation yield of polyunsaturated fatty acids” value [3] is given as “significantly increase”.
